From patent US20100311726A1, “REDUCTION OF BETA-AMYLOID LEVELS BY TREATMENT WITH THE SMALL MOLECULE DIFFERENTIATION-INDUCING FACTOR” (priority 2007, published 2010)

Legend:
[1] = test system: CHO cells stably expressing human wild type APP^751 (CHO-7W); assay: Cell proliferation assay in APP-expressing CHO cells; assay type: cell-based, Chinese Hamster
Description: For proliferation assays, 1×10^4 cells were deposited into 24-well plates and treated with vehicle (ethanol or DMSO) or with various amounts of DIF-1 or DIF-3 for a period of 4 days. Cells were harvested after each day by trypsin/EDTA treatment, stained with an equal volume of 0.05% Trypan blue and enumerated in triplicate twice using a haemocytometer. Dead cells are stained blue, but live cells with intact cell membranes are not coloured. Data represents the mean cell number±the standard deviation for at least 3 separate experiments.
The levels of secreted Aβ from CHO-7W cells stably overexpressing APP^751 and CHO-CAB cells that overexpress APP^751 and human BACE1 was quantified by ELISA and viewed by western blot using the monoclonal anti-APP antibody (6E10) that recognizes residues 1-17 of Aβ. […] Since DIF-1 exerts a cytostatic effect, the cell number was counted for all treatments upon removal of the conditioned media and used to normalize the levels of Aβ. […] The concentration of Aβ40 and Aβ42 was subsequently detected in triplicate using the β-Amyloid 1-40 or 1-42 Colorimetric ELISA kit (Biosource International, Inc.) according to the manufacturer's instructions.
Cells seeded on a 6-well plate were incubated with various concentrations of DIF-1. Cells were harvested by the trypsin/EDTA treatment at the times indicated and counted with a haemocytometer. […]

human APLP1 = assay: APLP1 metabolism by western blot in CHO-A1 cells; assay type: cell-based; conditions: 30 μM DIF-1 or 250 nM DAPT, ~20 hours
Description: CHO cells that stably express human APLP1, which is a closely related family member of the APPs and known γ-secretase substrate (Eggert et al., 2004), were treated with 30 μM DIF-1, DAPT or DIF-1 plus DAPT (FIG. 7). Equal numbers of CHO-A1 cells stably expressing human APLP1 cells were plated in 6-well dishes and allowed to grow overnight. The next day, the media was removed and replaced with control media (2 ml) or media containing DAPT, DIF-1 or DAPT and DIF-1. […] After washing, blots were probed with HRP-conjugated secondary antibodies (1:5000) for 1 hour at room temperature.

[2] = test system: notch intracellular domain (NICD); assay: Notch intracellular domain (NICD) level; assay type: cell-based
CHO-CAB cells = assay: Confocal fluorescence microscopy of CHO-CAB cells; assay type: cell-based, Chinese Hamster; conditions: 30 μM overnight
Description: CHO-CAB cells were grown on multi-well chamber slides and treated overnight with 30 μM DIF-1. The cells were fixed with 4% paraformaldehyde/PBS, permeabilized with 0.1% Triton X-100/PBS for 10 min and blocked with 5% goat serum/PBS. APP (rabbit C-terminal 8717), PDI (ER marker), GM130 (golgi marker), and ubiquitin were detected using their corresponding antibodies and Alexa Fluor-conjugated secondary antibodies. Nuclei were stained with Hoechst 33342 (Molecular Probes/Invitrogen). Confocal fluorescence images were obtained using an Olympus DSU/IX70 spinning disc confocal microscope and processed using IPLab software (Scanalytics/BD Biosciences).
Next, the effect of DIF-1 on APP trafficking and subcellular distribution was assessed. Cells were fixed with 4% paraformaldehyde/PBS, permeabilized with 0.1% Triton X-100/PBS and blocked with 5% goat serum/PBS. Confocal microscopy of CHO-CAB cells stained with APP antibodies together with the ER marker PDI or golgi marker GM130 confirmed that APP primarily co-localized with GM130 and PDI (FIG. 14A). […] ER structure upon DIF-1 treatment became highly vacuolated but to a varying degree within populations of cells.

APP = APP processing (mature APP, αCTF, βCTF) by western blot; assay type: cell-based, human; conditions: CHO-CAB
Dictyostelium discoideum = conditions: Masento et al., 1988; cited from earlier work
[3] = neutral pH; cited from earlier work

CCCCCC(=O)c1c(O)c(Cl)c(OC)c(Cl)c1O [DIF-1, 1-[3,5-dichloro-2,6-dihydroxy-4-methoxyphenyl]-1-hexanone]
total cell number of vehicle treated cells higher than DIF-1 treated cells ([1]; 25 μM, after 20 hours, CHO-7W and CHO-CAB): ~10%
antiproliferative effect in CHO-7W compared to naïve cells (value in brackets, quantity not named) ([1]; CHO-7W): 30.6%±1.3
APLP1 maturation, protein levels, CTF levels (human APLP1): no effect on APLP1 maturation, protein levels or CTF production
effect on notch intracellular domain (NICD) [2]: no effect
ER structure (PDI marker) (CHO-CAB cells): disruption in the structure of the ER
subcellular distribution of APP (CHO-CAB cells): enriched around the nuclear periphery
effect on lactacystin-induced CTF accumulation (APP; 30 μM DIF-1 with 10 μM lactacystin): greatly reduced the effect of lactacystin
effect on ALLN-induced CTF accumulation (APP; DIF-1 with 10 μM ALLN): reduced the effect of ALLN on APP processing
absolute specific activity in stalk-cell differentiation (Dictyostelium discoideum): sub-nanomolar range
solubility [3]: soluble in both water and hexane
